From patent US20220356452A1, “INDIRECT THREE-DIMENSIONAL CO-CULTURE OF DORMANT TUMOR CELLS AND USES THEREOF” (University of Delaware, priority 2019, published 2022)

Key:
Format in all cases: cell-based
T47D cells [1] = assay: Quantitative analysis of LC3B+ve puncta cells (autophagy) by immunofluorescent staining in 3D culture; details: for autophagy (LC3B+ve puncta cells) with cytokine treatment: T47D in 3D culture, day 15, vs untreated T47D mono-culture
Text: Observations made with the in vitro model system shown here are consistent with in vivo observations in bone in a preclinical model for studying breast cancer dormancy at metastatic sites. a & b, Quantitative analysis of cells positive for LC3B^+ve puncta in images of immunofluorescent staining of autophagic protein (LC3B), cytoplasm (Phalloidin), and DNA (Hoechst) of T47D and BT474 cells in 3D mono-culture or indirect co-culture (#) with different BM niche cells (hFOB or hMSC) analyzed. Induction of autophagy observed in the indirect co-culture condition for T47D or BT474 with hFOB at Day 10 & 15, but not in mono-culture of T47D or co-culture of T47D with hMSC cells. […] In the case of T47D #hMSC insert exchange to #hFOB, induction of autophagy was observed upon insert exchange with similar observations for BT474 cells in these co-cultures. Significant differences assessed by Student's two-sided t-test, where differences shown for comparison between time points in co-culture conditions (*p<0.05, **p<0.01; ***p<0.001). Data are shown represent mean±SD (n=3).
(§1) Significant differences assessed by ANOVA with Tukey's multiple comparisons test, where differences are shown for comparison between controls and multiple conditions at day 15 time point (*p<0.05, **p<0.01; ***p<0.001). Data are shown represent mean±SD (n=3).
Significant differences assessed by one-way ANOVA with Tukey's multiple comparisons test, where differences are shown for comparison between multiple time points (*p<0.05, **p<0.01; ***p<0.001). Data are shown represent mean±SD (n=3).

T47D cells [2] = assay: Quantitative analysis of viable cells (viability/growth) of BCCs in 3D mono-culture or indirect co-culture with hFOB; details: T47D in 3D culture treated with recombinant human cytokines, vs untreated T47D mono-culture; day 15
Method: Significant differences were assessed by ANOVA with Tukey's multiple comparisons test, where differences are shown for comparison between controls and multiple conditions at day 15 time point (*p<0.05, **p<0.01; ***p<0.001). Data are shown represent mean±SD (n=3).

T47D cells [3] = assay: EdU proliferation assay in 3D mono-culture or indirect co-culture with hFOB; details: T47D in 3D culture, day 15, vs untreated T47D mono-culture
Method: Indirect co-culture also enables facile switching to elucidate effects of transition from dormancy-promoting to growth-promoting microenvironments. Breast cancer cell proliferation assessment of over time culture with different conditions in 3D hydrogels: 5-ethynyl-2′-deoxyuridine (EdU) proliferation assay was measured for both T47D & BT474 cells at each time point during 15 days of culture. a & b, Quantification of proliferative (EdU^+ve) T47D & BT474 cells alone (control) or in indirect co-culture (#) with different BM niche cells (hFOB or hMSC). […] Significant differences assessed by Student's two-sided t-test, where differences shown for comparison between time points in mono and co-culture conditions (*p<0.05, **p<0.01; ***p<0.001). e, Quantitative analysis of metabolic activity with AlamarBlue assay of T47D cells after insert exchange at day 10 (fold change relative to day 3). Statistical differences determined with ANOVA with Tukey's multiple comparisons test, where differences are shown for comparison between co-culture conditions on day 15 and 20 (*p<0.05, **p<0.01; ***p<0.001). Data are shown represent mean±SD (n=3).
as §1

Compound | autophagy (LC3B+ve puncta cells) with autophagy inhibitor (T47D cells [1]; T47D #hFOB co-culture, 12.5 pg/mL, 2 doses (Day 6 and Day 14), observation over 25 days) | growth (viable cells) with cytokine treatment (T47D cells [2]) | proliferation rate (EdU+ve cells) with cytokine treatment (T47D cells [3]) | autophagy (LC3B+ve puncta cells) with cytokine treatment (T47D cells [1])
CCN(CCO)CCCC(C)Nc1ccnc2cc(Cl)ccc12 (stereo not shown) [HCQ, hydroxychloroquine, reference compound] | inhibition of autophagy | – | – | –
MCP1: recombinant human MCP1 cytokine | – | significant growth inhibition | significantly decreased the proliferation rate | induced autophagosome formation
TNFa | – | significant growth inhibition | significantly decreased the proliferation rate | induced autophagosome formation
